In article PMC8002072, “A Novel Vasoactive Peptide “PG1” from Buffalo Ice-Cream Protects from Angiotensin-Evoked High Blood Pressure” (Antioxidants, 2021):
Where a SMILES comes first, the peptide text is derived from it.

How the values were obtained:
[1] = Microsomal stability assay; assay type: in vitro ADME; settings: human microsomes 20 mg/mL stock (5 μL in 200 µL), PG1 1 mM stock (2 μL), 100 mM phosphate buffer pH 7.4, 5 min pre-incubation, NADPH, 37 °C, 60 min, LC-MS/MS; mean ± SEM; read-out: parent compound turnover percentage
Procedure: 2 μL of PG1 peptide (1 mM) were incubated with 183 µL of 100 mM phosphate buffer (pH 7.4), and 5 μL of 20 mg/mL human microsomes (Thermo Fisher Scientific, Bremen, Germany). After pre-incubation in a water bath for 5 min, the mixture was added with 10 μL of the 20 mM NADPH at further incubated at 37 °C for 60 min. The reaction was stopped with ice-cold methanol, centrifuged at 10,000 rpm at room temperature for 5 min and analyzed by LC-MS/MS. Three controls were used: T0 reference was obtained stopping the microsomal reaction by addition of the organic solvent immediately after incubation with microsomes. As positive and negative controls were used testosterone and PG1 solution incubated without NADPH. The extent of metabolism is expressed as a percentage of the parent compound turnover using the following equation:(2) % Parent compound turnover = 100 − [concentration at 60 min/concentration at 0 min × 100]

Caco-2 cell monolayers [2] = assay: Caco-2 monolayer integrity (zonulin-1 immunofluorescence) and cell vitality; assay type: cell-based, human; settings: PG1 25 μM, 3 h; zonulin-1 expression and cell vitality (crystal violet); Figure S2
Procedure: To evaluate the effect of PG1 peptide on colorectal adenocarcinoma (Caco-2) cells, the cells were plated in 48-well plates at a density of 36 × 10^3 cells/well. After 24 h, the Hanks’ Balanced Salt solution containing PG1 peptide at the indicated concentrations was added to the wells. The cells were examined after 3 h through microscope analysis. Finally, cells’ viability was assessed by the use of Crystal Violet Staining Solution.
All experiments were performed in triplicate, and the relative cell viability was expressed as a percentage in comparison with the untreated control cells.
Integrity of monolayers was evaluated at the end of transport experiments fixing the PET membranes with 4% paraformaldehyde (PFA) for 15 min after a wash with PBS. Membranes were then incubated with blocking solution (0.1% Triton, 1% BSA, 0.02% sodium azide, 50 mM ammonium chloride) for 20 min at room temperature in the dark, followed by incubation with anti-zonulin 1 antibody (#402200, Invitrogen, Thermo Fisher Scientific, Waltham, MA, USA) at 2 μg mL^−1 (RT, 2 h). […] Slides were examined under a Nikon fluorescence inverted microscope (Nikon Instruments Europe, Firenze, Italy) and analyzed as described.
Figure S2. (A) Fluorescence micrograph of the Caco-2 cell monolayers. […]
Original magnification 200X. […] Results are expressed as mean (± SD), and are representative of three independent experiments. […]

Caco-2 cell monolayers [3] = assay: Caco-2 cell monolayers permeation experiments; assay type: in vitro ADME, human
Procedure: (§2) The colorectal adenocarcinoma (Caco-2) cell line was purchased from ATCC (Rockville, MD, USA). Cells were cultured in DMEM high glucose (4.5 g/L) with 2 mM L-glutamine and 10% (v/v) heat-inactivated fetal bovine serum. Cells were maintained at 37 °C in a humidified 5% CO2 atmosphere. Differentiation experiments were performed in a 12-well multiwell in transwell inserts (PET membrane, 0.4 µm pore size, 0.30 cm^2 surface area), plating Caco-2 at 2.6 × 10^5 cells/cm^2 for 21 days in complete medium, changed every other day.
(§3) The integrity of the monolayers was evaluated by means of the transepithelial electrical resistance (TEER) measurement using an EVOM2 epithelial voltohmmeter (World Precision Instruments, Sarasota, FL, USA). […] For the permeation assays, only intact monolayers with TEER higher than 300 Ω × cm^2 were used. In brief, PET membranes were washed for 15–20 min at 37 °C with pre-warmed Hank’s balanced salt solution (HBSS) buffered with 25 mM HEPES and NaHCO3 (0.35 g/L) to adjust pH at 7.4, or with 10 mM methanesulfonic acid to adjust pH at 6.5. HBSS was added both to the apical (0.3 mL) and to the basolateral (0.9 mL) transwell compartments, as previously described [22].
(§4) For transport experiments, donor solution containing PG1 peptide was added to the apical compartment. […]
(§5) The apparent permeability coefficient (Papp) was calculated according to the Equation (1). The donor concentration was recalculated by subtracting the cumulative amount transported to the receiver chamber for each time interval:(1) CD(ti)=CD(ti−1)−CRti−f×CRti−1×VR/VD CD (ti) and CR (ti) (μM): donor and receiver chamber concentrations calculated at each sample occasion (i) from the donor and receiver concentrations at the previous occasion CD (ti−1) and CR (ti−1), respectively; f = 1 − VS/VR: sample replacement dilution factor; VS (cm^3): sample volume; VR (cm^3): receiver chamber volume; VD (cm^3): donor chamber volume.

[4] = Caco-2 cell monolayers permeation experiments; assay type: in vitro ADME, human; settings: human; Caco-2 monolayers, HBSS, 180 min, UHPLC-MS/MS; read-out: efflux ratio (Papp,b/a/Papp,a/b)
Procedure: as §2, §3, §4, §5

[5] = system: pancreatin (from the porcine pancreas), chymotrypsin (from bovine pancreas); assay: Enzymatic stability with digestive enzymes; assay type: in vitro ADME; settings: chymotrypsin and bile salts, peptide/enzyme 1:10 or 1:100 w/w, 37 °C, 180 min, LC-MS/MS
Procedure: (§1) The peptide (5 µM) was incubated for 3 h and monitored by mass spectrometry experiments. On the other hand, the assessment of PG1 enzymatic stability was performed by treating the peptide with digestive enzymes. In detail, pentapeptide was incubated with pancreatin (from the porcine pancreas), chymotrypsin (from bovine pancreas) and bile salts. Digestive reactions were carried out at 37 °C for 180 min with 1:10 or 1:100 peptide/enzyme ratio, w/w. Finally, the mixture was centrifuged at 4000× g at 4 °C for 10 min, and PG1 peptide was collected at time 0 and at the end of the experiment and then analyzed by LC-MS/MS for the mass balance calculation.

[6] = Serum concentration of PG1 in treated mice; assay type: in vivo; settings: mouse, mice treated with PG1 (10 mg/Kg daily), ACN/0.1% TFA extraction, LC-MS/MS, LOQ 8.6 pM, mean ± SEM, read-out: serum concentration of pentapeptide
Procedure: For the determination of serum concentration of pentapeptide in mice treated with PG1, blood samples were taken from the ventricle, performing a slow withdrawal to prevent the heart collapsing, to obtain a large quantity of high-quality blood. After collection, samples were rapidly centrifuged at 800 g to separate and collect serum. Extraction was conducted with ice-cold ACN plus 0.1% TFA (100 µL serum + 200 µL ACN). Samples were vortexed for 30 s and then centrifuged for 5 min at 10,000 rpm (Eppendorf Centrifuge model 5425). The supernatant was dried under nitrogen steam and reconstituted in 50:50 H2O/ACN. Calibration curve prepared by serial dilution of synthetic peptide solubilized in water in over the range 200–10 pM (y = 0.0167x + 0.7127, R^2 = 0.9998, LOD = 2.8 pM, LOQ = 8.6 pM).

[7] = Chemical stability in simulated enteric lumen; assay type: physicochemical; settings: 5 µM peptide, 10 mM HCOONH4 pH 7.5, 37 °C, 3 h, mass spectrometry
Procedure: In order to determine pharmacokinetic properties of a synthetic peptide, we have evaluated its chemical stability during in vitro simulated GI digestion. In detail, we have recreated the enteric lumen by alkalinization at pH = 7.5 with 10 mM HCOONH4 buffer.
as §1

metabolised at 1 h, 10 µM [1] | Caco-2 cell monolayers integrity (Caco-2 cell monolayers [2]) | dependence of transmembrane uptake on proton gradient (Caco-2 cell monolayers [3]; Caco-2 monolayers, HBSS pH 7.4 or pH 6.5) | efflux ratio at 180 min [4] | enzymatic stability (hydrolysis) [5] | level at time molar [6] | chemical stability [7] | apparent permeability coefficient (Papp) of monolayer control (Caco-2 cell monolayers [3]; Caco-2 monolayers 21 days, transwell, HBSS, LC-MS/MS (SRM), integrity/reference marker) | SMILES
~13.2% | preserved | independent of the proton gradient | < 1 | not hydrolysed | ~0.017 nM | high peptide stability for up to 3 h | – | CSCC[C@H](NC(=O)[C@@H]1CCCN1C(=O)[C@H](CCC(=O)O)NC(=O)[C@H](CCCCN)NC(=O)[C@@H](N)CCC(N)=O)C(=O)O [PG1, Gln-Lys-Glu-Pro-Met] (H-QKEPM-OH)
– | – | – | – | – | – | – | 8.05 ± 0.16 × 10^−5 cm/s | CC(C)NCC(O)COc1cccc2ccccc12 (centres unmarked) [propranolol, reference compound]
